This is an account of results in patent publication US6534516B1, “Androgen receptor modulator compounds and methods” (Ligand Pharmaceuticals Incorporated, priority 1996, dated 2003).

Experiment [1] concerns immature castrated male rat. The experiment can be described thus: Immature castrated male rat model with testosterone silastic implant, ventral prostate and seminal vesicle weights. It is filed as in vivo. Particulars: for ED50: Rattus norvegicus, po, 72 h; for Seminal Vesicles weight / Ventral Prostate weight: 3 days. The source says: The activity of selected compounds of the present invention as AR antagonists was *~ investigated in an immature castrated male rat model. A recognized test of the antiandrogen activity of a given compound, as described in L. G. Hershberger et al., 83 Proc. Soc. Exptl. […] Similar approaches have been used in the rat and in hamsters. […] Dermatol.
The basis of this assay is the fact that male sexual accessory organs, such as the prostate and seminal vesicles, play an important role in reproductive function. […] See F. Labrie et al., 16 Clin. Invest. […] However, this is not a major pathway since, in both animals and humans, castration without concomitant adrenalectomy leads to almost complete involution of the prostate and seminal vesicles. […] See M. C. […] Since the male sex organs are the tissues most responsive to modulation by androgen activity, this model is used to determine the androgen-dependent growth of the sex accessory organs in immature castrated rats.
Immature male rats (50-60 g, 21 day-old Sprague-Dawley, Harlan) were castrated under metofane anesthesia. […] As a negative control, a group of castrated animals received empty 10 mm silastic implants. Animal groups were dosed for 3 days by oral gavage as follows:
At the end of the 3-day treatment, the animals were sacrificed, and the ventral prostates and seminal vesicles were collected and weighed. Organ weight data were normalized to body weight of each animal and expressed as mg/100 g body weight. Results were analyzed by analysis of variance followed by the Dunnett's test. Data were transformed to comply with the normality and variance homogeneity criteria required to utilize the analysis of variance and Dunnett's test. The following data transformations were used for the ventral prostate and seminal vesicle: square root and power 0.7 respectively. Thereafter, the data were fitted to a four-parameter logistic equation and potencies derived from the fitted estimates. The same data transformations were used for the equation-fitting phase of the data analysis.
The gain and loss of sexual organ weights reflect the changes of cell number (DNA content) and cell mass (protein content), depending upon the serum androgen concentrations. […] Therefore, measurement of organ wet weights is sufficient to indicate the bioactivity of androgens and androgen antagonists.

The target in experiment [2] is T1, MR (Homo sapiens, UniProt P08235).
T1 construct: expressed in transfected cells
T1 sequence (P08235 1-984): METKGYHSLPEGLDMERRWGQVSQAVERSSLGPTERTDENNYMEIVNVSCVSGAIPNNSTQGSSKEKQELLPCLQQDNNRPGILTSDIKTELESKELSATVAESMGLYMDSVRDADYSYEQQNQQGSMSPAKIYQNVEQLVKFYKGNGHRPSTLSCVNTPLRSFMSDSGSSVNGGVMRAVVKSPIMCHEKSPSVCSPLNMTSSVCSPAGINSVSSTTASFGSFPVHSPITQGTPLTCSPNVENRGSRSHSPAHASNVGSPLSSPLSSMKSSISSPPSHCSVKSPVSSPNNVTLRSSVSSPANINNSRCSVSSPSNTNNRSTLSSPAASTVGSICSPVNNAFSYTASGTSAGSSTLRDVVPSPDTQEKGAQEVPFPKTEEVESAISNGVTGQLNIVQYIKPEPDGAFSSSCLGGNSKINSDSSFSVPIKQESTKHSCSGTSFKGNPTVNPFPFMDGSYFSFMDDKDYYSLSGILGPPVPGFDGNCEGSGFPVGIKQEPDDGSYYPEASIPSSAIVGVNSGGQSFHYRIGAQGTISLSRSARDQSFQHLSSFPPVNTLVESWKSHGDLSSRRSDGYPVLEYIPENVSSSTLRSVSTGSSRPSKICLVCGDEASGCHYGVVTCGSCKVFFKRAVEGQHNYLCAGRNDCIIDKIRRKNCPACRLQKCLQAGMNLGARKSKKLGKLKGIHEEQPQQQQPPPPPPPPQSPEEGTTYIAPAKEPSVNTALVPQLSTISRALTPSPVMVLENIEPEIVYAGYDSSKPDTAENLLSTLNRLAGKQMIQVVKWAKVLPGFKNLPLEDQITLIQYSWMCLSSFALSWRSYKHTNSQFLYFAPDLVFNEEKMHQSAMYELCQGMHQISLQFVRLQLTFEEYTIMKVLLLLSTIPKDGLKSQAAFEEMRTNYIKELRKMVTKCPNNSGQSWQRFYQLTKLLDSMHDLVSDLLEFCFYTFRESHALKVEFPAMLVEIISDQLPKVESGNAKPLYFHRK
The experiment can be described thus: Co-transfection assay, cross-reactivity on MR. The format is cell-based.

In experiment [3] the target is T2, human AR (Homo sapiens, UniProt P10275).
T2 construct: expressed in transfected cells; host or cells: CV-1 cells (African green monkey kidney fibroblasts)
T2 sequence (P10275 1-920): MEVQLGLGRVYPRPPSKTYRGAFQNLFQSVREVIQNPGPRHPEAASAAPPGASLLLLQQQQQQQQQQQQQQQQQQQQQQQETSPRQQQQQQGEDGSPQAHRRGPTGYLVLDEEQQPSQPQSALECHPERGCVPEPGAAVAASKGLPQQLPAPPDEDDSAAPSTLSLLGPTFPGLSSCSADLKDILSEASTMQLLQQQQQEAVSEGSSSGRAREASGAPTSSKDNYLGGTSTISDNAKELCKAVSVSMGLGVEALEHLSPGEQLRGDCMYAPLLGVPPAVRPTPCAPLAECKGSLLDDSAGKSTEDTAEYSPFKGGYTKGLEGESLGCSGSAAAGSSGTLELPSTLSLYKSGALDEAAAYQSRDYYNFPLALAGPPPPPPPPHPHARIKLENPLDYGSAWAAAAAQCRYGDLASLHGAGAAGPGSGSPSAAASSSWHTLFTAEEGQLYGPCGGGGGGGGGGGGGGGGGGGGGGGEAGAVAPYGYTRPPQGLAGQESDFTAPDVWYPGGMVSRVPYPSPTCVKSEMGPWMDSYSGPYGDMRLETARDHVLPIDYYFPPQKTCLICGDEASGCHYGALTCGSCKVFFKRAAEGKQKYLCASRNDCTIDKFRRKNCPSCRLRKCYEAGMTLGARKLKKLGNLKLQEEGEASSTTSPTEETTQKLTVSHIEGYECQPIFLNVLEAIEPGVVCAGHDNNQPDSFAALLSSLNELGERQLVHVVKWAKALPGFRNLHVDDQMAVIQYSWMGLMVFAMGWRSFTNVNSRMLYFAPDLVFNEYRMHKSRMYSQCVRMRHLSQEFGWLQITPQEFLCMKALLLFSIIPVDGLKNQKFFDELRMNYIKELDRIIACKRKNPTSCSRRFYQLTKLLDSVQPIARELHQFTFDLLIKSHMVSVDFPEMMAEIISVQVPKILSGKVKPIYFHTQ
The experiment can be described thus: cell-based. The following applies: read-out: AR Binding Ki.

Like-named read-outs stand apart in the source and are kept apart here.

By ED50 is commonly meant the midpoint of the dose-response relation. The term IC50 denotes the concentration that gives 50% inhibition. High values mean weaker potency in that assay, low ones greater potency in that assay. Broadly, the Ki is the dissociation constant of the complex between target and ligand, obtained from inhibition or displacement. `CC1(C)CCc2cc3c(C(F)(F)F)c(F)c(=O)[nH]c3cc2N1` [Compound 105, 7-Fluoro-1,2,3,4-tetrahydro-2,2-dimethyl-6-trifluoromethyl-8-pyridono[5,6-g]quinoline]: in experiment [1] (30 mg/kg), the “suppression of seminal vesicle weight relative to castrate levels (in words)” value is “complete suppression to castrate levels”. Further, the “suppression of ventral prostate weight relative to castrate levels (in words)” value in experiment [1] (30 mg/kg) is given as “suppresses ventral prostate weight to castrate levels”. For the same compound, the 50% effective dose (ED50) in experiment [1] (read-out: Potency (ED50) Weighted Average ± SE, Seminal Vesicle Weight) was 7.5 ± 1.3 mg/kg; in experiment [1] (read-out: Potency (ED50) Weighted Average ± SE, Ventral Prostate Weight) it was 3.1 ± 0.7 mg/kg. Moreover, the “Seminal Vesicles weight” value in experiment [1] (T implant + 0.1 mg/kg oral) is on record as 28.1 ± 3.6 (5) mg/100 g body weight; in experiment [1] (T implant + 1 mg/kg oral), 27.4 ± 1.7 (5) mg/100 g body weight; in experiment [1] (T implant + 3 mg/kg oral), 24.9 ± 0.9 (5) mg/100 g body weight; in experiment [1] (T implant + 10 mg/kg oral), 15.2 ± 0.3 (5) mg/100 g body weight; in experiment [1] (T implant + 30 mg/kg oral), 7.1 ± 1.4 (5) mg/100 g body weight; in experiment [1] (T implant + 100 mg/kg oral) it was 7.6 ± 1.4 (5) mg/100 g body weight. The “Ventral Prostate weight” value in experiment [1] (T implant + 0.1 mg/kg oral) was 74.8 ± 5.4 (5) mg/100 g body weight; in experiment [1] (T implant + 1 mg/kg oral), 63.6 ± 6.6 (5) mg/100 g body weight; in experiment [1] (T implant + 3 mg/kg oral), 48.4 ± 6.6 (5) mg/100 g body weight; in experiment [1] (T implant + 10 mg/kg oral), 40.0 ± 1.3 (5) mg/100 g body weight; in experiment [1] (T implant + 30 mg/kg oral), 24.6 ± 2.0 (5) mg/100 g body weight; in experiment [1] (T implant + 100 mg/kg oral) it was 23.6 ± 2.2 (5) mg/100 g body weight. In experiment [2], this compound displayed a 50% inhibitory concentration (IC50) of 2260 nM. Besides, the Ki in experiment [3] was 21 ± 11 nM.
